According to patent US12697330B2, “Therapeutic methods using vadadustat” (Akebia Therapeutics, Inc., priority 2021, dated 2026):

Tested on: hemoglobin (Hb)
Assay: Phase 2 study in hemodialysis subjects converting from epoetin alfa, Main Study: efficacy (hemoglobin)
Type: in vivo, human
Excerpt: The primary objective was to assess the efficacy and safety of daily dosing of vadadustat compared to epoetin alfa for 12 weeks in hemodialysis subjects. Additional objectives included to assess the efficacy and safety of three times weekly (TIW) dosing of vadadustat in selected hemodialysis subjects who have been successfully managed with daily dosing of vadadustat through Week 12, to evaluate the PK/PD of daily and TIW dosing of vadadustat in hemodialysis subjects compared to epoetin alfa, and to assess the efficacy and safety of several dosing strategies of vadadustat compared to epoetin alfa during a 20-week Treatment Period in hemodialysis subjects.
The Main study population consisted of adult subjects receiving chronic, outpatient in-center hemodialysis three times weekly (TIW), with 2 screening hemoglobin (Hb) values between 8.5 and 11.0 g/dL (inclusive) and on maintenance treatment with epoetin alfa <300 U/kg/week.
Efficacy Endpoints. The primary endpoint was the mean change in Hb between Baseline (average pretreatment Hb) and the primary evaluation period (average Hb from Weeks 10 to 12). Secondary endpoints included proportion of subjects with Hb values within the target range (10.0 to 11.0 g/dL, inclusive) at the primary evaluation period (Weeks 10-12) and for subjects who transitioned to TIW vadadustat dosing, mean change in Hb from primary evaluation period (average Hb from Weeks 10-12) to the secondary period (average Hb from Weeks 18-20). Other secondary endpoints included mean change in Hb from Baseline (average pretreatment Hb) and the secondary evaluation period (average Hb from Weeks 18-20), proportion of subjects with Hb values within the target range (10.0 to 11.0 g/dL, inclusive) at the secondary evaluation period (Weeks 18 to 20), for subjects who transitioned to TIW vadadustat dosing, proportion of subjects with Hb values within the target range (10.0 to 11.0 g/dL, inclusive) at the secondary evaluation period (Weeks 18-20), proportion of subjects with a mean increase in Hb from Baseline to the primary evaluation period ≥0.5 g/dL (average Hb from Weeks 10-12) or with Hb values within the target range (10.0 to 11.0 g/dL, inclusive) at the primary evaluation period (Weeks 10-12), proportion of subject with a mean increase in Hb from Baseline to the secondary evaluation period ≥0.5 g/dL (average Hb from Weeks 18-20) or with Hb values within the target range (10.0 to 11.0 g/dL, inclusive) at the secondary evaluation period (Weeks 18-20), intravenous (IV) iron supplementation, ESA rescue, and RBC transfusion.
Study Design. This was a Phase 2, randomized, open-label study to evaluate vadadustat for the treatment of anemia in hemodialysis subjects converting from epoetin alfa therapy. For all subjects (Main study and ESA hyporesponder parallel study), the study included a Screening Period, a study Treatment Period, and a Safety Follow-Up Period as described below. PK and PD sampling were done throughout the study. The aim was to achieve and maintain Hb levels within the target range of 10.0 to 11.0 g/dL, inclusive, while targeting the middle of the range and minimizing excursions outside the target range.
Randomization. Subjects were randomized to either a vadadustat treatment arm or epoetin alfa treatment arm. Randomization was stratified by mean weekly epoetin alfa dose calculated over a period of 8 weeks prior to SV2: low epoetin alfa dose group (≤90 U/kg/week) or high epoetin alfa dose group (>90 to <300 U/kg/week). In the low epoetin alfa dose group, subjects were randomized in a 3:3:2 ratio to receive either an initial vadadustat daily dose of 450 mg (3 tablets) or 300 mg (2 tablets), or epoetin alfa. In the high epoetin alfa dose group, subjects were randomized in a 3:3:3:2 ratio to receive either an initial vadadustat daily dose of 600 mg (4 tablets), 450 mg (3 tablets) or 300 mg (2 tablets), or epoetin alfa.
Study Treatment Period (Baseline/Day 1 to Week 20). […]

[1] = Primary Evaluation Period (Average of Weeks 10 to 12), Vada 300 mg, High Epoetin Alfa (>90 to <300 U/kg/week)
[2] = Primary Evaluation Period (Average of Weeks 10 to 12), Vada 300 mg, Low Epoetin Alfa (<90 U/kg/week)
[3] = Primary Evaluation Period (Average of Weeks 10 to 12), Vada 450 mg, High Epoetin Alfa (>90 to <300 U/kg/week)
[4] = Primary Evaluation Period (Average of Weeks 10 to 12), Vada 450 mg, Low Epoetin Alfa (<90 U/kg/week)
[5] = Primary Evaluation Period (Average of Weeks 10 to 12), Vada 600 mg, High Epoetin Alfa (>90 to <300 U/kg/week)
[6] = Secondary Evaluation Period (Average of Weeks 18 to 20), Vada 300 mg, High Epoetin Alfa (>90 to <300 U/kg/week)
[7] = Secondary Evaluation Period (Average of Weeks 18 to 20), Vada 300 mg, Low Epoetin Alfa (<90 U/kg/week)
[8] = Secondary Evaluation Period (Average of Weeks 18 to 20), Vada 450 mg, High Epoetin Alfa (>90 to <300 U/kg/week)
[9] = Secondary Evaluation Period (Average of Weeks 18 to 20), Vada 450 mg, Low Epoetin Alfa (<90 U/kg/week)
[10] = Secondary Evaluation Period (Average of Weeks 18 to 20), Vada 600 mg, High Epoetin Alfa (>90 to <300 U/kg/week)
[11] = Vada 300 mg, High Epoetin Alfa (>90 to <300 U/kg/week)
[12] = Vada 300 mg, Low Epoetin Alfa (<90 U/kg/week)
[13] = Vada 450 mg, High Epoetin Alfa (>90 to <300 U/kg/week)
[14] = Vada 450 mg, Low Epoetin Alfa (<90 U/kg/week)
[15] = Vada 600 mg, High Epoetin Alfa (>90 to <300 U/kg/week)

O=C(O)CNC(=O)c1ncc(-c2cccc(Cl)c2)cc1O [Compound 1, {[5-(3-chlorophenyl)-3-hydroxypyridine-2-carbonyl]amino}acetic acid]
Subjects with Hb Higher than Target range (10.0 to 11.0 g/dL), number (percentage of N2) [1]: 0 | Subjects with Hb Lower than Target range (10.0 to 11.0 g/dL), number (percentage of N2) [1]: 11 (91.7) | Subjects with Hb Within Target range (10.0 to 11.0 g/dL), number (percentage of N2) [1]: 1 (8.3) | Subjects with Hb Higher than Target range (10.0 to 11.0 g/dL), number (percentage of N2) [2]: 2 (6.7) | Subjects with Hb Lower than Target range (10.0 to 11.0 g/dL), number (percentage of N2) [2]: 16 (53.3) | Subjects with Hb Within Target range (10.0 to 11.0 g/dL), number (percentage of N2) [2]: 12 (40.0) | Subjects with Hb Higher than Target range (10.0 to 11.0 g/dL), number (percentage of N2) [3]: 4 (22.2) | Subjects with Hb Lower than Target range (10.0 to 11.0 g/dL), number (percentage of N2) [3]: 10 (55.6) | Subjects with Hb Within Target range (10.0 to 11.0 g/dL), number (percentage of N2) [3]: 4 (22.2) | Subjects with Hb Higher than Target range (10.0 to 11.0 g/dL), number (percentage of N2) [4]: 6 (20.0) | Subjects with Hb Lower than Target range (10.0 to 11.0 g/dL), number (percentage of N2) [4]: 11 (36.7) | Subjects with Hb Within Target range (10.0 to 11.0 g/dL), number (percentage of N2) [4]: 13 (43.3) | Subjects with Hb Higher than Target range (10.0 to 11.0 g/dL), number (percentage of N2) [5]: 2 (14.3) | Subjects with Hb Lower than Target range (10.0 to 11.0 g/dL), number (percentage of N2) [5]: 8 (57.1) | Subjects with Hb Within Target range (10.0 to 11.0 g/dL), number (percentage of N2) [5]: 4 (28.6) | Subjects with Hb Higher than Target range (10.0 to 11.0 g/dL), number (percentage of N2) [6]: 1 (14.3) | Subjects with Hb Lower than Target range (10.0 to 11.0 g/dL), number (percentage of N2) [6]: 4 (57.1) | Subjects with Hb Within Target range (10.0 to 11.0 g/dL), number (percentage of N2) [6]: 2 (28.6) | Subjects with Hb Higher than Target range (10.0 to 11.0 g/dL), number (percentage of N2) [7]: 4 (15.4) | Subjects with Hb Lower than Target range (10.0 to 11.0 g/dL), number (percentage of N2) [7]: 16 (61.5) | Subjects with Hb Within Target range (10.0 to 11.0 g/dL), number (percentage of N2) [7]: 6 (23.1) | Subjects with Hb Higher than Target range (10.0 to 11.0 g/dL), number (percentage of N2) [8]: 2 (14.3) | Subjects with Hb Lower than Target range (10.0 to 11.0 g/dL), number (percentage of N2) [8]: 9 (64.3) | Subjects with Hb Within Target range (10.0 to 11.0 g/dL), number (percentage of N2) [8]: 3 (21.4) | Subjects with Hb Higher than Target range (10.0 to 11.0 g/dL), number (percentage of N2) [9]: 3 (12.5) | Subjects with Hb Lower than Target range (10.0 to 11.0 g/dL), number (percentage of N2) [9]: 14 (58.3) | Subjects with Hb Within Target range (10.0 to 11.0 g/dL), number (percentage of N2) [9]: 7 (29.2) | Subjects with Hb Higher than Target range (10.0 to 11.0 g/dL), number (percentage of N2) [10]: 1 (10.0) | Subjects with Hb Lower than Target range (10.0 to 11.0 g/dL), number (percentage of N2) [10]: 7 (70.0) | Subjects with Hb Within Target range (10.0 to 11.0 g/dL), number (percentage of N2) [10]: 2 (20.0) | Change from Baseline in Hb at Primary Evaluation Period, Mean (SD) [11]: −1.048 (0.730) g/dL | Change from Baseline in Hb at Primary Evaluation Period, Median [11]: -0.967 g/dL | Change from Baseline in Hb at Secondary Evaluation Period, Mean (SD) [11]: 0.017 (1.086) g/dL | Change from Baseline in Hb at Secondary Evaluation Period, Median [11]: -0.325 g/dL | Hb at Primary Evaluation Period (Average of Weeks 10 to 12), Mean (SD) [11]: 8.82 (0.761) g/dL | Hb at Primary Evaluation Period (Average of Weeks 10 to 12), Median [11]: 8.750 g/dL | Hb at Secondary Evaluation Period (Average of Weeks 18 to 20), Mean (SD) [11]: 9.88 (1.027) g/dL | Hb at Secondary Evaluation Period (Average of Weeks 18 to 20), Median [11]: 9.575 g/dL | Change from Baseline in Hb at Primary Evaluation Period, Mean (SD) [12]: −0.421 (0.732) g/dL | Change from Baseline in Hb at Primary Evaluation Period, Median [12]: -0.450 g/dL | Change from Baseline in Hb at Secondary Evaluation Period, Mean (SD) [12]: −0.327 (1.086) g/dL | Change from Baseline in Hb at Secondary Evaluation Period, Median [12]: -0.300 g/dL | Hb at Primary Evaluation Period (Average of Weeks 10 to 12), Mean (SD) [12]: 9.78 (0.742) g/dL | Hb at Primary Evaluation Period (Average of Weeks 10 to 12), Median [12]: 9.767 g/dL | Hb at Secondary Evaluation Period (Average of Weeks 18 to 20), Mean (SD) [12]: 9.86 (0.932) g/dL | Hb at Secondary Evaluation Period (Average of Weeks 18 to 20), Median [12]: 9.775 g/dL | Change from Baseline in Hb at Primary Evaluation Period, Mean (SD) [13]: −0.130 (1.033) g/dL | Change from Baseline in Hb at Primary Evaluation Period, Median [13]: -0.250 g/dL | Change from Baseline in Hb at Secondary Evaluation Period, Mean (SD) [13]: −0.458 (0.895) g/dL | Change from Baseline in Hb at Secondary Evaluation Period, Median [13]: -0.575 g/dL | Hb at Primary Evaluation Period (Average of Weeks 10 to 12), Mean (SD) [13]: 9.96 (1.121) g/dL | Hb at Primary Evaluation Period (Average of Weeks 10 to 12), Median [13]: 9.750 g/dL | Hb at Secondary Evaluation Period (Average of Weeks 18 to 20), Mean (SD) [13]: 9.63 (0.954) g/dL | Hb at Secondary Evaluation Period (Average of Weeks 18 to 20), Median [13]: 9.475 g/dL | Change from Baseline in Hb at Primary Evaluation Period, Mean (SD) [14]: −0.074 (1.085) g/dL | Change from Baseline in Hb at Primary Evaluation Period, Median [14]: 0.017 g/dL | Change from Baseline in Hb at Secondary Evaluation Period, Mean (SD) [14]: −0.273 (0.827) g/dL | Change from Baseline in Hb at Secondary Evaluation Period, Median [14]: -0.300 g/dL | Hb at Primary Evaluation Period (Average of Weeks 10 to 12), Mean (SD) [14]: 10.08 (1.226) g/dL | Hb at Primary Evaluation Period (Average of Weeks 10 to 12), Median [14]: 10.550 g/dL | Hb at Secondary Evaluation Period (Average of Weeks 18 to 20), Mean (SD) [14]: 9.91 (0.909) g/dL | Hb at Secondary Evaluation Period (Average of Weeks 18 to 20), Median [14]: 9.917 g/dL | Change from Baseline in Hb at Primary Evaluation Period, Mean (SD) [15]: −0.541 (1.124) g/dL | Change from Baseline in Hb at Primary Evaluation Period, Median [15]: -0.133 g/dL | Change from Baseline in Hb at Secondary Evaluation Period, Mean (SD) [15]: −0.500 (1.025) g/dL | Change from Baseline in Hb at Secondary Evaluation Period, Median [15]: -0.300 g/dL | Hb at Primary Evaluation Period (Average of Weeks 10 to 12), Mean (SD) [15]: 9.62 (1.026) g/dL | Hb at Primary Evaluation Period (Average of Weeks 10 to 12), Median [15]: 9.233 g/dL | Hb at Secondary Evaluation Period (Average of Weeks 18 to 20), Mean (SD) [15]: 9.57 (0.871) g/dL | Hb at Secondary Evaluation Period (Average of Weeks 18 to 20), Median [15]: 9.450 g/dL
